Drawing on patent publication US9890146B2, “Compound having selective EP2 agonist activity” (ONO PHARMACEUTICAL CO., LTD., priority 2014, dated 2018), this text covers inhibition in vivo and EC50 for 17 molecules.

Where two headings read alike, the source gives them in different places.

Assay [1] concerns male monkey (a cynomolgus monkey). Put plainly: Intraocular pressure lowering activity after ocular instillation. Format: in vivo. The following applies: Primates, in Macaca fascicularis, topical, maximum rate during 24 hours after ocular instillation of 30 μL, conscious monkey; for inhibition in vivo at 3 µg/mL: administration concentration 3 μg/mL; for inhibition in vivo at 100 µg/mL: administration concentration 100 μg/mL; for inhibition in vivo at 30 µg/mL: administration concentration 30 μg/mL; for inhibition in vivo at 10 µg/mL: administration concentration 10 μg/mL. As for the experimental part: As can be easily understood by a person skilled in the art, in an in vivo test, since regarding all test compounds, carboxylic acid which is an active body has poor corneal permeability, pharmacological action of the active body was evaluated by ocular instillation administration of a compound which had been converted into an ester such as an ethyl ester or an isopropyl ester, or an alcohol.
A test compound-containing solution (30 μL) which had been adjusted to each of various concentrations was ocular instillation-administered to the left or right eye of a male monkey (a cynomolgus monkey) under consciousness. An intraocular pressure after administration was measured with time from administration initiation to after 24 hours. Upon measurement of an intraocular pressure, a cynomolgus monkey was fixed on a monkey chair, and the monkey was anesthetized by ocular instillation-administering an ocular surface anesthetic (Benoxil eye drops 0.4% Santen Pharmaceutical Co., Ltd.). After mounting of a blepharostat (Handaya Co., Ltd.), an intraocular pressure of both eyes was measured (7 to 8 examples per group) using a pneumatic applanation flat tonometer (Model 30 Classic, REICHERT). A difference between an intraocular pressure value before the administration of a test substance and an intraocular pressure value after the administration of the test substance was calculated as an intraocular pressure lowering rate in accordance with the following equation, and the sustainability of intraocular eye lowering action was evaluated using a maximum intraocular pressure lowering rate during measurement.
The administered concentrations were determined based on the EP2 agonist activities measured by the above-mentioned method.

Assay [2] deals with T1, human EP2 (Homo sapiens, UniProt P43116).
T1 construct: expressed in transfected cells; host or cells: CHO cells (EP2-CHO)
Put plainly: Measurement of EP2 agonist activity (measurement of cAMP concentration). Format: cell-based. As for the experimental part: Using Chem1 cells or CHO cells in which various prostanoid receptors were forcibly expressed, respectively, agonist activities of test compounds on various prostanoid receptors was determined employing, as a measure, an intracellular cyclic AMP (hereinbelow, abbreviated as “cAMP”) production amount or an intracellular calcium concentration.
The test compound and a control substance (PGE2 and PGF2α) were dissolved in dimethyl sulfoxide (DMSO) to prepare a 10 mmol/L solution. The 10 mmol/L solution thus prepared was thawed upon use, then serially diluted with DMSO, and then diluted with a buffer solution for measurement use or a buffer solution for measurement use 2, and then the resulting solution was subjected to an experiment.
Cells forcibly expressing various prostanoid receptors were standing-cultured at 37° C. in the presence of 5% CO2 using a DMEM medium (Sigma) (for culturing FP-Chem1) containing inactivated (56° C., 30 minutes) 9.8 vol % nondialysed-FBS (Life Technologies), 1 vol % Non Essential Amino Acids (Life Technologies), 10 mmol/L HEPES Buffer Solution (Life Technologies), 0.5 vol % GENETICIN (Life Technologies) and 1% penicillin-streptomycin (Life Technologies) or an α-MEM medium (Sigma) (for culturing EP2-CHO) containing inactivated (56° C., 30 minutes) 9.8 vol % dialysed-FBS (Life Technologies) and penicillin-streptomycin-glutamine (Life Technologies). Subculturing was carried out by the following manner.
The medium was removed, and washed with a phosphate-buffered physiological saline not containing Ca^2+ and Mg^2+ one time. A proper amount of trypsin-EDTA (Life Technologies) was added, and this was incubated at room temperature, cells were peeled, and a medium having a volume which is 10-fold a volume of trypsin-EDTA was added to stop an enzymatic reaction. After cells were recovered into a centrifuging tube, and centrifuged at room temperature for 3 minutes at 120 g, the supernatant was removed. Cells were suspended in a proper amount of a medium, and seeded in a culturing flask.
On the measurement day, a medium was removed, and EP2-CHO was washed with a phosphate-buffered physiological saline containing 2 mmol/L EDTA and not containing Ca^2+ and Mg^2+ one time. A proper amount of the phosphate-buffered physiological saline containing 2 mmol/L EDTA and not containing Ca^2+ and Mg^2+ was added, this was incubated at 37° C. in the presence of 5% CO2, cells were peeled, cells were recovered into a centrifuging tube, and centrifuged at room temperature for 3 minutes at 550 g, and the supernatant was removed. Cells were suspended in a proper amount of a buffer solution for measurement 1 (MEM medium (Invitrogen) containing 1.0 w/v % bovine serum albumin (Sigma) and 2 μmol/L diclofenac (Sigma)), and centrifuged at room temperature for 3 minutes at 200 g, and the supernatant was removed. Cells were suspended in a buffer solution for measurement 2 (MEM medium (Invitrogen) containing 1.0 w/v % bovine serum albumin (Sigma), 2 μmol/L diclofenac (Sigma) and 1 mmol/L 3-isobutyl-1-methylxanthine), and each 25 μL of the suspension was dispensed into a 96-well ½ area plate so that the cell number per well became […]. A buffer solution for measurement 2 (25 μL) containing an agonist at a variety of concentrations was added to carry out a reaction at room temperature for 30 minutes. Measurement of a cAMP concentration was carried out using the cAMP HTRF HiRange kit (CIS bio International). According to the two step protocol of the kit manual, each 25 μL of cAMP-D2 and Cryptase diluted with a lysis buffer were added, and this was incubated at room temperature for 1 hour. After incubation for 1 hour, time resolution fluorescence at 620 nm and 660 nm when excited at 340 nm was measured using SpectraMax M5e (Molecular Device), and a ratio (TRF ratio) was obtained, thereby, a cAMP concentration was calculated from a calibration line. […]

The mark [3] stands for this setting: EP2-CHO cells, cAMP production (HTRF), reaction 30 minutes at room temperature, read-out: EP2 agonist activity EC50.

T1 sequence (P43116 whole entry): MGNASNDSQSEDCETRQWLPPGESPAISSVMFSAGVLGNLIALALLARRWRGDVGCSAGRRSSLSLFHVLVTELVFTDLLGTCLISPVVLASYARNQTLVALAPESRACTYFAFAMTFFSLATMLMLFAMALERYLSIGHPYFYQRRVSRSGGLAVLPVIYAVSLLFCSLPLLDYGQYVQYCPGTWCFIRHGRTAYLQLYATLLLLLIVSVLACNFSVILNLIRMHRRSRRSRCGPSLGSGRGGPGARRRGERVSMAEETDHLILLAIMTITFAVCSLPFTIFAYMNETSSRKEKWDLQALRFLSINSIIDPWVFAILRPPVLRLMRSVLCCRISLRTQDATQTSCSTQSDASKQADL

A word on the inhibition in vivo: it is the change of the read-out against control, counted positive when it falls. For `OCc1csc([C@H]2CC[C@@H]3[C@@H](COc4ccc5c(c4F)CCC5)[C@@H](O)C[C@@H]3O2)n1` [10(22), (2R,4aR,5S,6S,7aS)-5-{[(4-fluoro-2,3-dihydro-1H-inden-5-yl)oxy]methyl}-2-[4-(hydroxymethyl)-1,3-thiazol-2-yl]octahydrocyclopenta[b]pyran-6-ol], the inhibition in vivo at 3 µg/mL in assay [1] stood at 43%.

Molecule `CC(C)OC(=O)c1csc([C@H]2CC[C@@H]3[C@@H](COc4ccccc4)[C@H](O)C[C@@H]3O2)n1` [3(1), isopropyl 2-[(2R,4aR,5S,6R,7aS)-6-hydroxy-5-(phenoxymethyl)octahydrocyclopenta[b]pyran-2-yl]-1,3-thiazole-4-carboxylate] displayed an inhibition in vivo at 100 µg/mL in assay [1] of 28%. `CCc1ccc(OC[C@@H]2[C@H]3CC[C@H](c4nc(CO)cs4)O[C@H]3C[C@@H]2O)cc1CC` [10(32), (2R,4aR,5S,6S,7aS)-5-[(3,4-diethylphenoxy)methyl]-2-[4-(hydroxymethyl)-1,3-thiazol-2-yl]octahydrocyclopenta[b]pyran-6-1] displayed an inhibition in vivo at 3 µg/mL in assay [1] of 41%. In assay [1], `Cc1cc(OC[C@@H]2[C@H]3CC[C@H](c4nc(C(=O)OC(C)C)cs4)O[C@H]3C[C@H]2O)ccc1[N+](=O)[O-]` [3(3), isopropyl 2-{(2R,4aR,5S,6R,7aS)-6-hydroxy-5-[(3-methyl-4-nitrophenoxy)methyl]octahydrocyclopenta[b]pyran-2-yl}-1,3-thiazole-4-carboxylate] displayed an inhibition in vivo at 3 µg/mL of 33%. For `CCc1cc(OC[C@@H]2[C@H]3CC[C@H](c4nc(CO)cs4)O[C@H]3C[C@@H]2O)ccc1C` [10(3), (2R,4aR,5S,6S,7aS)-5-[(3-ethyl-4-methylphenoxy)methyl]-2-[4-(hydroxymethyl)-1,3-thiazol-2-yl]octahydrocyclopenta[b]pyran-6-ol], 1 µg/mL produced 49% inhibition in vivo in assay [1] (administration concentration 1 μg/mL). Take `OCc1csc([C@H]2CC[C@@H]3[C@@H](COc4cccc5c4CCC5)[C@H](O)C[C@@H]3O2)n1` [2(14), (2R,4aR,5S,6R,7aS)-5-[(2,3-dihydro-1H-inden-4-yloxy)methyl]-2-[4-(hydroxymethyl)-1,3-thiazol-2-yl]octahydrocyclopenta[b]pyran-6-ol]: the inhibition in vivo at 30 µg/mL in assay [1] amounted to 45%. In assay [1], `OCc1csc([C@H]2CC[C@@H]3[C@@H](COc4ccc(Cl)c(C5CC5)c4)[C@H](O)C[C@@H]3O2)n1` [2(10), (2R,4aR,5S,6R,7aS)-5-[(4-chloro-3-cyclopropylphenoxy)methyl]-2-[4-(hydroxymethyl)-1,3-thiazol-2-yl]octahydrocyclopenta[b]pyran-6-ol] gave an inhibition in vivo at 10 µg/mL of 31%.

In assay [1], `OCc1csc([C@H]2CC[C@@H]3[C@@H](COc4ccc5c(c4)CCCC5)[C@@H](O)C[C@@H]3O2)n1` [10(7), (2R,4aR,5S,6S,7aS)-2-[4-(hydroxymethyl)-1,3-thiazol-2-yl]-5-[(5,6,7,8-tetrahydro-2-naphthalenyloxy)methyl]octahydrocyclopenta[b]pyran-6-ol] gave an inhibition in vivo at 10 µg/mL of 41%. The molecule `CCc1ccc(OC[C@@H]2[C@H]3CC[C@H](c4nc(CO)cs4)O[C@H]3C[C@@H]2O)cc1C1CC1` [10(15), (2R,4aR,5S,6S,7aS)-5-[(3-cyclopropyl-4-ethylphenoxy)methyl]-2-[4-(hydroxymethyl)-1,3-thiazol-2-yl]octahydrocyclopenta[b]pyran-6-ol] came in with an inhibition in vivo at 3 µg/mL in assay [1] of 37%.

In assay [1], `OCc1csc([C@H]2CC[C@@H]3[C@@H](COc4ccc(C5CC5)c(C5CC5)c4)[C@@H](O)C[C@@H]3O2)n1` [Example 10, (2R,4aR,5S,6S,7aS)-5-[(3,4-dicyclopropylphenoxy)methyl]-2-[4-(hydroxymethyl)-1,3-thiazol-2-yl]octahydrocyclopenta[b]pyran-6-ol] had an inhibition in vivo at 10 µg/mL of 40%. Turning to `OCc1csc([C@H]2CC[C@@H]3[C@@H](COc4ccc5ccoc5c4)[C@H](O)C[C@@H]3O2)n1` [2(8), (2R,4aR,5S,6R,7aS)-5-[(1-benzofuran-6-yloxy)methyl]-2-[4-(hydroxymethyl)-1,3-thiazol-2-yl]octahydrocyclopenta[b]pyran-6-ol], the inhibition in vivo at 30 µg/mL in assay [1] came out at 55%. On to `CCc1ccc(OC[C@@H]2[C@H]3CC[C@H](c4nc(CO)cs4)O[C@H]3C[C@@H]2O)cc1C1CCC1` [10(17), (2R,4aR,5S,6S,7aS)-5-[(3-cyclobutyl-4-ethylphenoxy)methyl]-2-[4-(hydroxymethyl)-1,3-thiazol-2-yl]octahydrocyclopenta[b]pyran-6-ol], for which, in assay [1], the inhibition in vivo at 100 µg/mL was determined as 57%. With `Cc1cc(OC[C@@H]2[C@H]3CC[C@H](c4nc(CO)cs4)O[C@H]3C[C@H]2O)ccc1Cl` [2(13), (2R,4aR,5S,6R,7aS)-5-[(4-chloro-3-methylphenoxy)methyl]-2-[4-(hydroxymethyl)-1,3-thiazol-2-yl]octahydrocyclopenta[b]pyran-6-ol], the inhibition in vivo at 3 µg/mL in assay [1] came out at 31%. In assay [1] (administration concentration 0.3 μg/mL), `CSc1cc(OC[C@@H]2[C@H]3CC[C@H](c4nc(CO)cs4)O[C@H]3C[C@@H]2O)ccc1C` [10(12), (2R,4aR,5S,6S,7aS)-2-[4-(hydroxymethyl)-1,3-thiazol-2-yl]-5-{[4-methyl-3-(methylthio)phenoxy]methyl}octahydrocyclopenta[b]pyran-6-ol] showed an inhibition in vivo at 0.3 µg/mL of 33%. What is called EC50 is the midpoint of the concentration-response curve. On to `O=C(O)c1csc([C@H]2CC[C@@H]3[C@@H](COc4ccc(C5CC5)c(C5CC5)c4)[C@@H](O)C[C@@H]3O2)n1` [Example 9, 2-{(2R,4aR,5S,6S,7aS)-5-[(3,4-dicyclopropylphenoxy)methyl]-6-hydroxyoctahydrocyclopenta[b]pyran-2-yl}-1,3-thiazole-4-carboxylic acid], for which the EC50 in assay [2] (setting [3]) came out at 2.8 nM.

In the case of `CCCCC[C@H](O)/C=C/[C@@H]1[C@H]2CCC(c3ccccc3CC(=O)O)O[C@H]2C[C@H]1O` (some centres unmarked) [reference compound], the 50% effective concentration (EC50) in assay [2] (prior-art compounds having an analogous structure, same EP2 test, read-out: EP2 agonist activities, EC50 values) was at least 10000 nM. Take `CCc1cc(OC[C@@H]2[C@H]3CC[C@H](c4nc(C(=O)O)cs4)O[C@H]3C[C@H]2O)ccc1C` [1(17), 2-{(2R,4aR,5S,6R,7aS)-5-[(3-ethyl-4-methylphenoxy)methyl]-6-hydroxyoctahydrocyclopenta[b]pyran-2-yl}-1,3-thiazole-4-carboxylic acid]: in assay [2] (setting [3]), the EC50 came out at 0.82 nM.
